Like-named read-outs stand apart in the source and are kept apart here.
How the values were obtained:
Raw264.7 cells [1] = assay: Cell number (CellNb) from image analysis of the phenotypic cell-based assay; settings: for Primary QIM CellNb: primary screen, 20 μM; for QIM Confirm CellNb 0.2 uM / QIM Confirm CellNb 2 uM / QIM Confirm CellNb 20 uM: confirmation
Raw264.7 cells [2] = settings: mouse, 5 days; for Primary QIM CellNb: 20 μM
[3] = system: M. tuberculosis H37Rv-GFP; assay: microbe, parasite or virus in culture; type: cell-based, Mycobacterium tuberculosis; settings: Mycobacterium tuberculosis, H37RV, Macrophage; for inhibition at 0.2 µM: read-out: QIM Confirm % Inhibition 0.2 uM; for inhibition at 2 µM: read-out: QIM Confirm % Inhibition 2 uM
[4] = system: M. tuberculosis H37Rv-GFP; assay: microbe, parasite or virus in culture; type: cell-based; settings: Mycobacterium tuberculosis; for inhibition at 0.2 µM: read-out: QUM Confirm % Inhibition 0.2 uM; for inhibition at 2 µM: read-out: QUM Confirm % Inhibition 2 uM; for inhibition at 20 µM: read-out: QUM Confirm % Inhibition 20 uM
[5] = confirmation, 20 uM, read-out: QIM Confirm % Inhibition 20 uM
[6] = primary screen, 20 μM, read-out: Primary QIM % Inhibition
[7] = confirmation, 20 uM, intracellular, read-out: QIM Confirm % Inhibition 20 uM
[8] = primary screen, 20 μM, intracellular, read-out: Primary QIM % Inhibition

| Structure (SMILES) | Primary QIM CellNb (Raw264.7 cells [1]) | Primary QIM CellNb (Raw264.7 cells [2]) | inhibition at 20 µM [3, 5] [%] | inhibition at 20 µM [3, 6] [%] | QIM Confirm CellNb 0.2 uM (Raw264.7 cells [2]; 0.2 uM) | inhibition at 20 µM [3, 7] [%] | inhibition at 20 µM [3, 8] [%] | QIM Confirm CellNb 20 uM (Raw264.7 cells [2]; 20 uM) | inhibition at 0.2 µM [4] [%] | inhibition at 2 µM [4] [%] | inhibition at 20 µM [4] [%] | QIM Confirm CellNb 0.2 uM (Raw264.7 cells [1]) | QIM Confirm CellNb 2 uM (Raw264.7 cells [1]) | QIM Confirm CellNb 20 uM (Raw264.7 cells [1]) | inhibition at 0.2 µM ([3]; confirmation, intracellular) [%] | inhibition at 2 µM ([3]; confirmation, intracellular) [%] |
| --- | --- | --- | --- | --- | --- | --- | --- | --- | --- | --- | --- | --- | --- | --- | --- | --- |
| COc1ccc(/C=N/NC(=O)c2ccncc2)cc1OC [IPK 000 042 95] | 143.5 | 106.0 | 98.8 | 64.7 |  |  |  |  |  |  |  |  |  |  |  |  |
| O=S(=O)(Nc1nccs1)c1ccc(/N=C/c2ccccc2O)cc1 [IPK 000 079 88] | 181.8 | 7.5 | 28.1 | -69.2 |  |  |  |  |  |  |  |  |  |  |  |  |
| O=C(Nc1nccs1)c1ccc(COc2ccc(Cl)cc2)o1 [IPK 000 124 54] | 503.3 | 16.4 | 75 | 75.5 |  |  |  |  |  |  |  |  |  |  |  |  |
| Cc1ccc(/C=N/NC(=O)c2ccncc2)cc1 [IPK 000 041 50] | 296.3 | 102.2 | 90.8 | 81.6 |  |  |  |  |  |  |  |  |  |  |  |  |
| O=C(CS)Nc1ccccc1Cl [IPK 000 108 27] | 171.0 | 19.0 | 44.1 | 54.7 |  |  |  |  |  |  |  |  |  |  |  |  |
| CCC(C)c1ccc(NC(=O)c2ccc(Cl)c([N+](=O)[O-])c2)cc1 (stereo not drawn) [IPK 000 048 71] | 56.5 | 22.6 | 70 | 62.1 |  |  |  |  |  |  |  |  |  |  |  |  |
| Cc1sc(/N=C/c2ccc([N+](=O)[O-])s2)c(C(N)=O)c1C [IPK 000 110 17] | 155.5 | 12.9 | 71.6 | 55.6 |  |  |  |  |  |  |  |  |  |  |  |  |
| O=C1CSC(N/N=C/c2cc([N+](=O)[O-])ccc2O)N1 (stereo not drawn) [IPK 000 109 00] | 87.8 | 23.8 | 8.2 | -7.8 |  |  |  |  |  |  |  |  |  |  |  |  |
| O=C(Nc1sc2c(c1C(=O)Nc1ccccc1)CCC2)c1ccccc1Br [IPK 000 073 29] | 230.5 | 55.1 | 86.6 | 78.6 |  |  |  |  |  |  |  |  |  |  |  |  |
| Cc1ccc(NC(=O)c2ccc([N+](=O)[O-])cc2Cl)cc1Cl [IPK 000 047 16] | 280.5 | 77.9 | 85.1 | 69.4 |  |  |  |  |  |  |  |  |  |  |  |  |
| C=C(N/N=C/c1cccc(C)n1)c1nn(Cc2ccc(Br)cc2)cc1Br [IPK 000 091 17] | 191.5 | 35.4 | 75.7 | 75.6 |  |  |  |  |  |  |  |  |  |  |  |  |
| Cc1cc(C)cc(NC(=O)c2cccs2)c1 [IPK 000 192 45] |  |  |  |  | 334.0 | 65.4 | 88.8 |  |  |  |  |  |  |  |  |  |
| O=C(Nc1ccccc1)Nc1ccc(Br)c(Cl)c1 [IPK 000 170 27] |  |  |  |  |  | 18.9 | -72.4 | 46.9 |  |  |  |  |  |  |  |  |
| CN(C)c1ccc(/C=C2/c3ccccc3-c3ccc(C(=O)CCCCN4CCCCC4)cc32)cc1 [IPK 000 198 53] |  | 10.2 |  |  |  | 41.9 | 58.5 |  |  |  |  |  |  |  |  |  |
| CCc1nnc(NS(=O)(=O)c2ccc(N)cc2)s1 [IPK 000 035 58] | 104.0 |  | 2.8 | -51.3 |  |  |  |  | 45.1 | 46.4 | 65.3 | 292.3 | 330.0 | 279.9 | 5.1 | 34.4 |
| Brc1ccc(/C=N/Nc2nc(N3CCOCC3)nc(N3CCOCC3)n2)o1 [IPK 000 011 65] | 145.5 |  | 41.9 | 6.5 |  |  |  |  | 39.8 | 40.6 | 96.3 | 259.6 | 336.5 | 201.1 | 4.7 | 23.4 |
| O=C(Nc1ccc([N+](=O)[O-])cc1)C12CC3CC(CC(C3)C1)C2 [IPK 000 022 33] | 372.0 |  | 90 | 66 |  |  |  |  | 35.7 | 45.4 | 74.2 | 315.6 | 472.3 | 517.1 | 30.3 | 33.5 |
| O=[N+]([O-])c1cc(C(F)(F)F)cc([N+](=O)[O-])c1Sc1nc(-c2ccccc2)c[nH]1 [IPK 000 001 32] | 88.3 |  | 50.7 | 25.4 |  |  |  |  | 43.9 | 41.2 | 89.1 | 241.4 | 208.5 | 113.8 | 10.3 | 0.2 |
| O=C(NN1C(=O)c2ccc(Br)cc2C1=O)c1ccncc1 [IPK 000 008 02] | 305.8 |  | 98 | 83.2 |  |  |  |  | 36.4 | 31.9 | 98.2 | 306.6 | 218.8 | 484.5 | 0.7 | 9.3 |

Reference: patent publication US8785452B2, “Anti-infective compounds” (priority 2008, dated 2014)
